According to patent US20070009614A1, “Composition and method for treating hypertension” (Northern Sydney Area Health Service, priority 2002, published 2007):

Assays:
[1] = test system: elderly patients with systolic hypertension; assay: Group I: double-blind randomised crossover study of single doses in patients with systolic hypertension, no baseline angiotensin II inhibition; conditions: for Sitting brachial blood pressure systolic: at 11.00 h after single dose at 08.00 h (ISMN 60 mg, captopril 25 mg, eprosartan 600 mg), placebo 173 ± 3; for Sitting brachial blood pressure systolic / Heart rate (sitting) / Sitting brachial blood pressure diastolic / Standing brachial blood pressure diastolic / Standing brachial blood pressure systolic / decrease in P1 (aortic first peak pressure) at nadir / decrease in P2 (augmentation pressure) at nadir: mean ± SEM; for Heart rate (sitting) / Sitting brachial blood pressure diastolic / Standing brachial blood pressure diastolic / Standing brachial blood pressure systolic: at 11.00 h after single dose at 08.00 h; for Heart rate (sitting): placebo 60 ± 4; for Sitting brachial blood pressure diastolic: placebo 82 ± 3; for Standing brachial blood pressure diastolic: placebo 83 ± 3; for Standing brachial blood pressure systolic: placebo 166 ± 4; for effect on augmentation index: post-dose observation period; for effect on aortic systolic blood pressure: ISMN and captopril P<0.0001, eprosartan P<0.001; for aortic systolic pressure lower than control at nadir of hypotensive effect: nadir ISMN 10.00 h, captopril 11.00 h, eprosartan 09.00 h
From the text: The subjects were sixteen patients with long-standing hypertension, referred from their family physicians after having undergone treatment trials using a variety of conventional antihypertensive agents without reaching satisfactory control of systolic blood pressure. […] Plasma creatinine concentration was <0.15 mmol/l in every case. There was a history of myocardial infarction Or coronary bypass grafting in eight subjects, of peripheral vascular disease in four, and of diabetes mellitus (not requiring medication) in one. All patients were fully ambulant without symptomatic cardiac disease or known vascular aneurysm. Their current regimen of antihypertensive therapy had been stable for three weeks or more, and was continued unchanged through the present study. None had received nitrate therapy previously. Two different study protocols were used. One patient participated in both protocols with a 15-month break in between. Entry to either study required that systolic blood pressure should be between 150 and 200 mmHg, and that diastolic blood pressure should be equal to or less than 100 mmHg.
Group I protocol. […] Their baseline anti-hypertensive therapy, which excluded ACE inhibitors and angiotensin II receptor antagonists, consisted of one to three of the following drugs in conventional dosage:. diuretics (7 cases), beta blockers (7), prazosin (1), amlodipine (4), nifedipine controlled-release formulation (2). […] The pulse wave and pulse rate were measured at the same intervals. Between observations, the subjects engaged in sedentary recreational activities in a temperature-controlled environment.
Brachial blood pressure was recorded by sphygmomanometer, and pulse wave tonometry was performed at the radial artery with the patient seated. The aortic pulse wave form was determined and the aortic first peak pressure (P1) and augmentation pressure (P2) were quantified by computer software (SphygmoCor, AtCor Medical, Sydney), as previously reported.^13 Augmentation index (P2 expressed as % of pulse pressure) described the magnitude of wave reflection. Statistical analysis was by repeated measures analysis of variance using PRISM (GraphPad Software Inc., San Diego, Calif.) and post-hoc paired t tests. Values given are mean±SEM.

[2] = reported in literature (refs 15-17); cited from earlier work
[3] = test system: elderly patients with systolic hypertension on chronic angiotensin II inhibitors; assay: Group II: double-blind randomised crossover study of single-dose ISMN in patients with AII inhibition at baseline; format: in vivo, human; conditions: for decrease in sitting diastolic pressure: not significant
Experimental: None had received nitrate therapy previously. Two different study protocols were used. […] Group II protocol. […] The two study days were one to two weeks apart. Observations were made from 0800 h to 1600 h as in Group I. These subjects differed from Group I in that they were receiving treatment at study entry with ACE inhibitor or angiotensin II receptor antagonist drugs, as follows: monopril 10 mg/d (1 case), captopril 50 mg/d (1), ramipril 10 mg/day (1), ramipril 10 mg/d and candesartan 16 mg/d (1), irbesartan 300 mg/d (1), telmisartan 40 mg/d (1). Their other baseline antihypertensive drug therapy consisted of 1-2 of the following agents in conventional dosage: hydrochlorthiazide (1), beta blockers (2), amlodipine (1), diltiazem controlled-delivery formulation (2). […] Values given are mean±SEM.

| Compound | Sitting brachial blood pressure systolic ([1]; Group I) [mm Hg] | Heart rate (sitting) ([1]; Group I) [bpm] | Sitting brachial blood pressure diastolic ([1]; Group I) [mm Hg] | Standing brachial blood pressure diastolic ([1]; Group I) [mm Hg] | Standing brachial blood pressure systolic ([1]; Group I) [mm Hg] | effect on augmentation index ([1]; Group I) | effect on heart rate ([1]; Group I, single dose) | effect on aortic systolic blood pressure ([1]; Group I, single dose) | decrease in P1 (aortic first peak pressure) at nadir ([1]; Group I, single dose) [mmHg] | decrease in P2 (augmentation pressure) at nadir ([1]; Group I, single dose) [mm Hg] | aortic systolic pressure lower than control at nadir of hypotensive effect ([1]; Group I, single dose) [mm Hg] | time to reach peak plasma concentration [2] [h] | further results |
| --- | --- | --- | --- | --- | --- | --- | --- | --- | --- | --- | --- | --- | --- |
| C[C@H](CS)C(=O)N1CCC[C@H]1C(=O)O [Captopril, captopril] | 148 ± 5 | 59 ± 4 | 78 ± 2 | 78 ± 2 | 143 ± 5 | Neither captopril nor eprosartan altered | not changed | significantly decreased | 9±2 | 9±3 | 23 | 1 | – |
| CCCCc1ncc(/C=C(\Cc2cccs2)C(=O)O)n1Cc1ccc(C(=O)O)cc1 [Eprosartan, eprosartan] | 158 ± 5 | 59 ± 4 | 78 ± 3 | 83 ± 4 | 152 ± 4 | Neither captopril nor eprosartan altered | not changed | significantly decreased | 4±2 | 6±3 | 15 | 1 to 2 | – |
| O=[N+]([O-])O[C@@H]1CO[C@H]2[C@@H]1OC[C@@H]2O [ISMN, isosorbide mononitrate] | 145 ± 5 | 60 ± 5 | 77 ± 3 | 77 ± 3 | 139 ± 4 | significantly reduced | – | significantly decreased | 11±2 | 19±3 | 34 | 3 to 4 | peak decrease in augmentation index ([1]; FIGS. 1 and 2 (Groups I and II)): approximately 50 % of control; average post-dose decrease in augmentation index ([1]; Group I, ISMN 60 mg single dose, control 37.9±1.0%): 15±1%; average post-dose decrease in aortic systolic pressure ([1]; Group I, ISMN 60 mg single dose, control 160±2): 29±2 mmHg; Heart rate average post-dose increase ([1]; Group I, single dose, P<0.001): 3±1 b.p.m.; duration of depressor effect ([1]; extended-release preparation, observation to 16.00 h): sustained through the remainder of the observation period; average post-dose decrease in augmentation index ([3]; Group II (baseline AII inhibition), ISMN 60 mg single dose, control 38.5±1.1%): 16±1%; average post-dose decrease in aortic systolic pressure ([3]; Group II (baseline AII inhibition), ISMN 60 mg single dose, control 154±2): 34±3 mmHg; effect on sitting and standing brachial systolic blood pressure ([3]; Group II, P<0.0001): decreased; decrease in sitting brachial systolic blood pressure ([3]; Group II, at 12.00 h, from control value 176, P<0.001): 37 mm Hg; decrease in sitting diastolic pressure ([3]; Group II, at 12.00 h): 13 mm Hg; decrease in sitting brachial systolic blood pressure ([3]; Group II, at 16.00 h, from control value 173, P<0.001): 34 mm Hg; decrease in sitting diastolic pressure ([3]; Group II, at 16.00 h): 10 mm Hg; Heart rate, overall mean value ([3]; Group II, increased from mean value of 60, P<0.001): 64 bpm |
